Test systems include CCRF-CEM leukemia; COLO 205 colon; HL-60(TB) leukemia; IGROV1 ovarian; NCI-H23 lung; RPMI-8226 leukemia; RXF 393 renal; SN12C renal; SNB-75 CNS; UACC-62 melanoma.
Holding throughout (assay): NCI-60 cell line screen, 48 h

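Cells were grown in 96-well plates and exposed to each compound for 48 hours at five concentrations; endpoints were interpolated linearly between bracketing concentrations, or set to the highest concentration if not reached. Abbreviation: GI50, concentration required for 50% inhibition of growth. TGI: total growth inhibition.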

`O=C(N/N=C/C=C/c1ccccc1)c1ccccc1Nc1ccccc1C(=O)N/N=C/C=C/c1ccccc1`: the TGI with CCRF-CEM leukemia, in the assay with COLO 205 colon, in the assay with HL-60(TB) leukemia, in the assay with IGROV1 ovarian, with NCI-H23 lung and in the assay with RPMI-8226 leukemia was above 100 µM throughout. The TGI in the assay on RXF 393 renal, with SN12C renal, in the assay with SNB-75 CNS and with UACC-62 melanoma was above 100 µM throughout.
As for `Cc1ccccc1N=C(N)Nc1ccccc1C`, the TGI with CCRF-CEM leukemia, in the assay on COLO 205 colon, with HL-60(TB) leukemia, with IGROV1 ovarian, with NCI-H23 lung and with RPMI-8226 leukemia was above 100 µM each time. For the same compound, the TGI in the assay with RXF 393 renal, in the assay on SN12C renal, in the assay with SNB-75 CNS and with UACC-62 melanoma was above 100 µM throughout.
Take `CC(Oc1ccccc1Cl)C(=O)NN1C(=O)CSC1c1ccccc1` (stereo not given): the TGI was above 100 µM with CCRF-CEM leukemia; above 100 µM in the assay on COLO 205 colon; 83.7 µM in the assay on HL-60(TB) leukemia; above 100 µM in the assay on IGROV1 ovarian; above 100 µM in the assay with NCI-H23 lung; above 100 µM with RPMI-8226 leukemia. For the same compound, the TGI in the assay on RXF 393 renal, in the assay with SN12C renal, in the assay with SNB-75 CNS and in the assay with UACC-62 melanoma was above 100 µM each time.
For the compound `CN1C(=O)C(O)C[C@@H]1c1ccccc1` (stereo not given in full), the TGI in the assay with CCRF-CEM leukemia, in the assay on COLO 205 colon, with HL-60(TB) leukemia, with IGROV1 ovarian, in the assay on NCI-H23 lung and in the assay on RPMI-8226 leukemia was above 100 µM throughout. Moreover, the TGI with RXF 393 renal, in the assay with SN12C renal, in the assay with SNB-75 CNS and with UACC-62 melanoma was above 100 µM throughout.
Take `Cc1cc(=O)[nH]c(NN2C(Cl)C(=O)C2c2ccc([N+](=O)[O-])cc2)n1` (stereo not given): the TGI in the assay with CCRF-CEM leukemia worked out at 6.6 µM; in the assay on COLO 205 colon, 35.9 µM; in the assay with HL-60(TB) leukemia, 24.9 µM; in the assay on IGROV1 ovarian, 16.1 µM; with NCI-H23 lung it was 26.1 µM; with RPMI-8226 leukemia, 30.9 µM. In addition, the TGI is 14.1 µM in the assay on RXF 393 renal, 24.5 µM in the assay with SN12C renal, 9.11 µM in the assay on SNB-75 CNS and 11.5 µM in the assay with UACC-62 melanoma.
For `O=C(O)c1ccccc1N=Cc1ccc(N(CCCl)CCCl)cc1`, the TGI in the assay on CCRF-CEM leukemia, with COLO 205 colon, in the assay on HL-60(TB) leukemia, in the assay with IGROV1 ovarian, with NCI-H23 lung and in the assay with RPMI-8226 leukemia was above 100 µM each time. The TGI was above 73.2 µM in the assay with RXF 393 renal, above 100 µM in the assay with SN12C renal, above 100 µM in the assay with SNB-75 CNS and above 100 µM in the assay on UACC-62 melanoma.
For the compound `CCCSc1ccc2[nH]c(N3C(=O)/C(=C/c4ccccc4)N=C3c3ccccc3)cc2c1`, the TGI was above 50 µM with CCRF-CEM leukemia; 24.6 µM with COLO 205 colon; 30.2 µM with HL-60(TB) leukemia; above 50 µM in the assay on IGROV1 ovarian; above 50 µM in the assay on NCI-H23 lung; 42.9 µM in the assay on RPMI-8226 leukemia. The TGI with RXF 393 renal, in the assay on SN12C renal, in the assay with SNB-75 CNS and in the assay on UACC-62 melanoma was above 50 µM each time.
`COc1ccc(C(SC2C(O)C(CO)OC2n2ccc(=O)[nH]c2=O)(c2ccccc2)c2ccc(OC)cc2)cc1` (stereo not given): the TGI with CCRF-CEM leukemia was above 100 µM; in the assay with COLO 205 colon, 34.9 µM; in the assay on HL-60(TB) leukemia, 68.4 µM; with IGROV1 ovarian, 40.9 µM; with NCI-H23 lung, 39.6 µM; with RPMI-8226 leukemia, above 100 µM. The TGI in the assay with RXF 393 renal amounted to 32.4 µM; in the assay on SN12C renal it was 32.4 µM; with SNB-75 CNS, 48.9 µM; with UACC-62 melanoma it was 33.3 µM.
`CC1(C)CC2(CC(C)(C)N1O)NC(=O)OC2=O`: the TGI with CCRF-CEM leukemia, in the assay on COLO 205 colon, with HL-60(TB) leukemia, with IGROV1 ovarian, in the assay with NCI-H23 lung and in the assay on RPMI-8226 leukemia was above 100 µM in each case. Besides, the TGI in the assay with RXF 393 renal, in the assay with SN12C renal, with SNB-75 CNS and with UACC-62 melanoma was above 100 µM each time.
On to `CN(C)/N=N/c1nc2c(c(=O)n(C)c(=O)n2C)n1CC(O)CO` (stereo not given), for which the TGI with CCRF-CEM leukemia, in the assay on COLO 205 colon, in the assay with HL-60(TB) leukemia, with IGROV1 ovarian, with NCI-H23 lung and with RPMI-8226 leukemia was above 100 µM throughout. The TGI in the assay with RXF 393 renal, with SN12C renal, in the assay on SNB-75 CNS and in the assay with UACC-62 melanoma was above 100 µM in each case.
With `COc1cnc2c(c1)C(=O)c1c-2n(CCCNCCO)c(=O)c2ccncc12`, the GI50 is 0.626 µM with CCRF-CEM leukemia; 0.82 µM with COLO 205 colon; 2.74 µM in the assay with HL-60(TB) leukemia; 2.65 µM with IGROV1 ovarian; 1.65 µM in the assay with NCI-H23 lung; 1.85 µM with RPMI-8226 leukemia. In addition, the GI50 is 1.2 µM with RXF 393 renal, 1.08 µM in the assay on SN12C renal, 1.13 µM in the assay with SNB-75 CNS and 0.552 µM in the assay on UACC-62 melanoma. In addition, the TGI in the assay on CCRF-CEM leukemia was 12.5 µM; with COLO 205 colon it was 9.05 µM; with HL-60(TB) leukemia, 11.4 µM; in the assay with IGROV1 ovarian, above 100 µM; with NCI-H23 lung it was 6.91 µM; in the assay on RPMI-8226 leukemia it was 7.58 µM. In addition, the TGI in the assay on RXF 393 renal was found to be 3.48 µM; in the assay on SN12C renal, 13.6 µM; in the assay on SNB-75 CNS it was 4.2 µM; with UACC-62 melanoma it was 2.12 µM.
Take `CC(C)=CCNc1nc(Cl)nc2nc[nH]c12`: the TGI in the assay on CCRF-CEM leukemia, in the assay on COLO 205 colon, in the assay on HL-60(TB) leukemia, with IGROV1 ovarian, in the assay on NCI-H23 lung and in the assay on RPMI-8226 leukemia was above 100 µM throughout. The TGI in the assay with RXF 393 renal was 62 µM; in the assay on SN12C renal, above 100 µM; in the assay on SNB-75 CNS it was above 100 µM; in the assay on UACC-62 melanoma, above 100 µM.

(Values after PubChem BioAssay (NCI).)
